Source: patent US20240116985A1, “STAPLED PEPTIDES AND METHODS THEREOF” (priority 2020, published 2024)
pIC50: −log10 of the molar value. Read-outs that look alike come from different tables or passages of the source.

How the values were obtained:
CHI Log D procedure = type: physicochemical; conditions: for CHI Log D: pH 7.4; for chromatographic logD: pH 7.4, CHI Log D
[1] = molecular target: T1, full-length beta-Catenin (Uniprot ID P35222) (Homo sapiens, UniProt P35222); assay: Fluorescence polarization IC50 (beta-catenin / 5FAM-TCF4 10-53 competition); type: binding
T1 construct: 10 nM full-length beta-Catenin (Uniprot ID P35222)
T1 sequence (P35222 1-781): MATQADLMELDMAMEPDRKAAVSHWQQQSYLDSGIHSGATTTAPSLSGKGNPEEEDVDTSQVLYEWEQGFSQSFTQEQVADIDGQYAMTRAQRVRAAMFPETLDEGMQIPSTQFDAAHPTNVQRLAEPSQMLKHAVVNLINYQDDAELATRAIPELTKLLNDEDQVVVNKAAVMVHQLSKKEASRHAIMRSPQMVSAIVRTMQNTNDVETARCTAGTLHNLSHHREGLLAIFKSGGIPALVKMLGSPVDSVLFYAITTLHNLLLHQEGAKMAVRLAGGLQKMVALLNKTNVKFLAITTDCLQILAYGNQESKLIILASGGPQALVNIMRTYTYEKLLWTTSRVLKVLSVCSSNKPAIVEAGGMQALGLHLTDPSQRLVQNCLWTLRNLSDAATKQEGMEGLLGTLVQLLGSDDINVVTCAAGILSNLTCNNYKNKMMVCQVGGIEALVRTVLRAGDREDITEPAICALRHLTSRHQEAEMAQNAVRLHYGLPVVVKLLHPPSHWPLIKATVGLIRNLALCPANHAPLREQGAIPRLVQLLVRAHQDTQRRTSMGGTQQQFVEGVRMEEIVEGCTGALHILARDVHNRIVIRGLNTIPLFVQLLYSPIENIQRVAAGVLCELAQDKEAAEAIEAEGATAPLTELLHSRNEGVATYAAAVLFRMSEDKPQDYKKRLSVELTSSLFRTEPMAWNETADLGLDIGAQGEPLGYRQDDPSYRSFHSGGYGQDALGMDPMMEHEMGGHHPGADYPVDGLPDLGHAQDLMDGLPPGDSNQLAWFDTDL

[2] = Table E2-1, read-out: beta-Catenin FP IC50
[3] = fluorescence polarization, beta-catenin, read-out: FP EC50
[4] = fluorescence polarization, read-out: beta-Catenin FP IC50

Row | Compound | CHI Log D (CHI Log D procedure) | pIC50 [1, 2] | chromatographic logD (CHI Log D procedure) | pIC50 ([1]; read-out: beta-Catenin FP IC50) | other results
1 | CC(=O)N1CCC[C@]12CC=CCCCC1(CCCC=CCCCOC(=O)N3CC[C@@](C(=O)N[C@@H](Cc4ccsc4)C(=O)N[C@@H](Cc4csc5ccccc45)C(=O)N[C@@H](CCC(N)=O)C(N)=O)(C3)NC(=O)[C@H](Cc3ccccc3)NC(=O)[C@H](Cc3ccccc3)NC(=O)[C@H](C)NC(=O)[C@H](C)NC(=O)[C@H](CC(N)=O)NC(=O)[C@H](CC(=O)O)NC1=O)NC(=O)[C@H](CC(C)(C)C)NC(=O)[C@H](CC(=O)O)NC2=O (stereo partly drawn) [I-855, Ac-PL3-Asp-Npg-B5-Asp-Asn-Ala-Ala-Phe-Phe-PyrS2-3Thi-BztA-Gln-NH2] |  |  | 2.54 | 7.66 | 
2 | CC(=O)N1CCC[C@]12CC=CCCCC1(CCCC=CCCCCCC[C@@](C)(C(=O)N[C@@H](Cc3ccccc3)C(=O)N[C@@H](Cc3csc4ccccc34)C(=O)N[C@@H](CCC(N)=O)C(N)=O)NC(=O)[C@H](CC(N)=O)NC(=O)[C@H](Cc3ccc(F)cc3)NC(=O)[C@H](C)NC(=O)[C@H](C)NC(=O)[C@H](CCC(=O)O)NC(=O)[C@H](CC(=O)O)NC1=O)NC(=O)[C@H](C)NC(=O)[C@H](CC(=O)O)NC2=O (stereo partly drawn) [I-455, Ac-PL3-Asp-Ala-B5-Asp-Glu-Ala-Ala-4FF-Asn-S8-Phe-BztA-Gln-NH2] |  |  | 2.04 |  | pIC50 [1, 4]: 7.08
3 | CC(=O)N1CCC[C@]12CC=CCCCC1(CCCC=CCCCOC(=O)N3CC[C@@](C(=O)N[C@@H](Cc4ccsc4)C(=O)N[C@@H](Cc4csc5ccccc45)C(=O)N[C@@H](CCC(N)=O)C(N)=O)(C3)NC(=O)[C@H](Cc3ccccc3)NC(=O)[C@H](Cc3ccccc3)NC(=O)[C@H](C)NC(=O)[C@H](C)NC(=O)[C@H](Cc3ccccc3C(=O)O)NC(=O)[C@H](CC(=O)O)NC1=O)NC(=O)[C@H](CC(C)(C)C)NC(=O)[C@H](CC(=O)O)NC2=O (stereo partly drawn) [I-853, Ac-PL3-Asp-Npg-B5-Asp-2COOHF-Ala-Ala-Phe-Phe-PyrS2-3Thi-BztA-Gln-NH2] |  |  | 2.52 | 8.10 | 
4 | CC(=O)N1CCC[C@]12CC=CCCCC1(CCCC=CCCCOC(=O)N3CC[C@@](C(=O)N[C@@H](Cc4ccsc4)C(=O)N[C@@H](Cc4csc5ccccc45)C(=O)N[C@@H](CCC(N)=O)C(=O)N[C@@H](CCCCNC(=O)CCc4cc(C(F)(F)F)cc(C(F)(F)F)c4)C(N)=O)(C3)NC(=O)[C@H](CC(N)=O)NC(=O)[C@H](Cc3ccccc3)NC(=O)[C@H](C)NC(=O)[C@H](C)NC(=O)[C@H](CC(=O)O)NC(=O)[C@H](CC(=O)O)NC1=O)NC(=O)[C@H](CC(C)(C)C)NC(=O)[C@H](CC(=O)O)NC2=O (stereo partly drawn) [I-902, Ac-PL3-Asp-Npg-B5-Asp-Asp-Ala-Ala-Phe-Asn-PyrS2-3Thi-BztA-Gln-[35CF3PhPr]Lys-NH2] |  |  | 2.69 | 6.98 | 
5 | CC(=O)N1CCC[C@]12CC=CCCCC1(CCCC=CCCCCCC[C@@](C)(C(=O)N[C@@H](Cc3ccccc3Cl)C(=O)N[C@@H](Cc3csc4ccccc34)C(=O)N[C@@H](C(N)=O)[C@H](C)O)NC(=O)[C@H]([C@@H](C)O)NC(=O)[C@H](Cc3ccccc3)NC(=O)[C@H](C)NC(=O)[C@H](C)NC(=O)[C@H](CCC(=O)O)NC(=O)[C@H](CC(=O)O)NC1=O)NC(=O)[C@H](CC(C)(C)C)NC(=O)[C@H](CC(=O)O)NC2=O (stereo partly drawn) [I-1094, Ac-PL3-Asp-Npg-B5-Asp-Glu-Ala-Ala-Phe-Thr-S8-2C1F-BztA-dThr-NH2] | 3.271 |  |  | 7.34 | pIC50 [1, 3]: 7.34
6 | CC(=O)N1CCC[C@]12CC=CCCCC1(CCCC=CCCCOC(=O)N3CC[C@@](C(=O)N[C@@H](Cc4ccsc4)C(=O)N[C@@H](Cc4csc5ccccc45)C(=O)N[C@@H](CCC(N)=O)C(N)=O)(C3)NC(=O)[C@H](CCC(N)=O)NC(=O)[C@H](Cc3ccccc3)NC(=O)[C@H](C)NC(=O)[C@H](C)NC(=O)[C@H](CC(=O)O)NC(=O)[C@H](CC(=O)O)NC1=O)NC(=O)[C@H](CC(C)(C)C)NC(=O)[C@H](CC(=O)O)NC2=O (stereo partly drawn) [I-763, Ac-PL3-Asp-Npg-B5-Asp-Asp-Ala-Ala-Phe-Gln-PyrS2-3Thi-BztA-Gln-NH2] | 1.967 |  |  | 8.30 | 
7 | CC(=O)N1CCC[C@]12CC=CCCCC1(CCCC=CCCCCCC[C@@](C)(C(=O)N[C@@H](Cc3ccccc3)C(=O)N[C@@H](Cc3csc4ccccc34)C(=O)N[C@@H](CCC(N)=O)C(N)=O)NC(=O)[C@H](CCC(N)=O)NC(=O)[C@H](Cc3ccccc3)NC(=O)[C@H](C)NC(=O)[C@H](C)NC(=O)[C@H](CC(=O)O)NC(=O)[C@H](CC(=O)O)NC1=O)NC(=O)[C@H](CC(C)C)NC(=O)[C@H](CC(=O)O)NC2=O (stereo partly drawn) [I-559, Ac-PL3-Asp-Leu-B5-Asp-Asp-Ala-Ala-Phe-Gln-S8-Phe-BztA-Gln-NH2] | 2.341 |  |  |  | pIC50 [1, 4]: 7.37; pIC50 ([1]; read-out: FP EC50): 7.37
8 | CC[C@H](C)[C@@H]1NC(=O)[C@H](CC(=O)O)NC(=O)[C@]2(CC=CCCCC3(CCCC=CCCCCCC[C@@](C)(C(=O)N[C@@H](Cc4ccccc4)C(=O)N[C@@H](Cc4csc5ccccc45)C(=O)N[C@@H](CCC(N)=O)C(N)=O)NC(=O)[C@H](CCC(N)=O)NC(=O)[C@H](Cc4ccccc4)NC(=O)[C@H](C)NC(=O)[C@H](C)NC(=O)[C@H](CCC(=O)O)NC(=O)C[C@H](C(=O)O)NC3=O)NC1=O)CCCN2C(C)=O (stereo partly drawn) [I-674, Ac-PL3-Asp-Ile-B5-isoDAsp-Glu-Ala-Ala-Phe-Gln-S8-Phe-BztA-Gln-NH2] |  |  | 1.95 |  | pIC50 [1, 4]: 5.30

The next lines start with results.

Row | CHI Log D (CHI Log D procedure) | pIC50 [1, 2] | chromatographic logD (CHI Log D procedure) | pIC50 ([1]; read-out: beta-Catenin FP IC50) | Compound | other results
9 | 2.271 | 5.48 |  |  | CC(=O)N1CCC[C@]12CC=CCCCC1(CCCC=CCCCCCC[C@@](C)(C(=O)N[C@@H](Cc3ccccc3)C(=O)N[C@@H](Cc3c[nH]c4ccccc34)C(N)=O)NC(=O)[C@H](C(C)C)NC(=O)[C@H](Cc3ccccc3)NC(=O)[C@H](C)NC(=O)[C@H](C)NC(=O)[C@H](CC(=O)O)NC(=O)[C@H](CC(=O)O)NC1=O)NC(=O)[C@H](C)NC(=O)[C@H](CC(=O)O)NC2=O (stereo partly drawn) [I-290, Ac-PL3-Asp-Ala-B5-Asp-Asp-Ala-Ala-Phe-Val-S8-Phe-Trp-NH2] | pIC50 [1, 3]: 5.48
10 |  | 5.55 | 2.07 |  | CC(=O)N1CCC[C@]12CC=CCCCC1(CCCC=CCCCCCC[C@@](C)(C(=O)N[C@@H](Cc3ccccc3)C(=O)N[C@@H](Cc3c[nH]c4ccccc34)C(=O)N[C@@H](CCC(N)=O)C(N)=O)NC(=O)[C@H](C(C)C)NC(=O)[C@H](Cc3ccccc3)NC(=O)[C@H](C)NC(=O)[C@H](C)NC(=O)[C@@H](CCC(=O)O)NC(=O)[C@H](CC(=O)O)NC1=O)NC(=O)[C@H](C)NC(=O)[C@H](CC(=O)O)NC2=O (stereo partly drawn) [I-182, Ac-PL3-Asp-Ala-B5-Asp-DGlu-Ala-Ala-Phe-Val-S8-Phe-Trp-Gln-NH2] | 
11 | 2.055 | 5.38 |  |  | CC(=O)N1CCC[C@]12CC=CCCCC1(CCCC=CCCCCCC[C@@](C)(C(=O)N[C@@H](Cc3ccccc3)C(=O)N[C@@H](Cc3c[nH]c4ccccc34)C(=O)N[C@@H](CCC(N)=O)C(N)=O)NC(=O)[C@H](C(C)C)NC(=O)[C@H](Cc3cccc(Cl)c3)NC(=O)[C@H](C)NC(=O)[C@H](C)NC(=O)[C@H](CC(=O)O)NC(=O)[C@H](CC(=O)O)NC1=O)NC(=O)[C@H](C)NC(=O)[C@H](CC(=O)O)NC2=O (stereo partly drawn) [I-307, Ac-PL3-Asp-Ala-B5-Asp-Asp-Ala-Ala-3C1F-Val-S8-Phe-Trp-Gln-NH2] | pIC50 [1, 3]: 5.38
12 |  | 5.66 | 2.06 |  | CC(=O)N1CCC[C@]12CC=CCCCC1(CCCC=CCCCCCC[C@@](C)(C(=O)N[C@@H](Cc3ccccc3)C(=O)N[C@@H](Cc3c[nH]c4c(F)cccc34)C(=O)N[C@@H](CCC(N)=O)C(N)=O)NC(=O)[C@H](C(C)C)NC(=O)[C@H](Cc3ccccc3)NC(=O)[C@H](C)NC(=O)[C@H](C)NC(=O)[C@H](CCC(=O)O)NC(=O)[C@H](CC(=O)O)NC1=O)NC(=O)[C@H](C)NC(=O)[C@H](CC(=O)O)NC2=O (stereo partly drawn) [I-166, Ac-PL3-Asp-Ala-B5-Asp-Glu-Ala-Ala-Phe-Val-S8-Phe-7FW-Gln-NH2] | 
13 |  | 5.30 | 1.34 |  | CC[C@H](C)[C@H](NC(=O)[C@H](CC(=O)O)NC(=O)[C@H](C)NC(C)=O)C(=O)N[C@]1(C)CCN(C)C(=O)OCC=CCCCCC[C@@](C)(C(=O)N[C@@H](Cc2ccccc2)C(=O)N[C@@H](Cc2c[nH]c3ccccc23)C(=O)N[C@@H](Cc2c[nH]cn2)C(N)=O)NC(=O)[C@H](C)NC(=O)[C@H](Cc2ccccc2)NC(=O)[C@H](C)NC(=O)[C@H](C)NC(=O)[C@H](CCC(=O)O)NC(=O)[C@H](CC(=O)O)NC1=O [I-152, Ac-Ala-Asp-Ile-RdN-Asp-Glu-Ala-Ala-Phe-Ala-S7-Phe-Trp-His-NH2] | 
14 |  | 5.30 | 2.02 |  | CC(=O)N1CCC[C@]12CC=CCCCC1(CCCC=CCCCCCC[C@@](C)(C(=O)N[C@@H](Cc3ccccc3)C(=O)N[C@@H](Cc3c[nH]c4ccccc34)C(=O)N[C@@H](CCC(N)=O)C(N)=O)NC(=O)[C@H](C(C)C)NC(=O)[C@H](Cc3ccc(F)cc3)NC(=O)[C@H](C)NC(=O)[C@H](C)NC(=O)[C@H](CC(=O)O)NC(=O)[C@H](CC(=O)O)NC1=O)NC(=O)[C@H](C)NC(=O)[C@H](CC(=O)O)NC2=O (stereo partly drawn) [I-266, Ac-PL3-Asp-Ala-B5-Asp-Asp-Ala-Ala-4FF-Val-S8-Phe-Trp-Gln-NH2] | 
